As usually defined, the MBC is the lowest tested concentration that kills the bacteria rather than only halting them.

Experiment [1] concerns Staphylococcus epidermidis (ATCC 35984, also known as RP62A). Briefly: MBC and MDK99.9 determination. It is filed as cell-based. How it is done:
The Minimal Inhibitory Concentration (MIC) and the Minimal Bactericidal Concentration (MBC) of Triafluocyl were determined in Staphylococcus epidermidis (ATCC 35984, also known as RP62A) according to EUCAST (European Committee on Antimicrobial Susceptibility Testing) recommendations.
We have also determined the MBC, i.e. the concentration at which the liquid culture, when spread on TSA plates, will not produce any colony.
The Minimum Duration for killing 99.9% S. epidermidis (MDK99.9) by Triafluocyl, a tolerance metric according to the EUCAST, was 2 hours.
(§1) For MBC determination a 1:100 inoculum of an O/N culture (prepared like before) was incubated in aerobic conditions for 2 h in bacteria-specific medium. The culture was then challenged with Fluometacyl at the MIC concentration or higher. Bacterial growth was measured after different time intervals by counting the colony-forming units (CFU) after plating appropriate culture dilutions on bacteria-specific medium agar plates.

For experiment [2], the system named is E. faecalis vancomycin-resistant (VRE) ATCC BAA-2365. Briefly: MBC and MDK99.9 determination (CFU counting). In kind it is cell-based, Enterococcus faecalis. The conditions noted are these: for MBC: Enterococcus faecalis, cut-off 99.9% reduction in CFU. The procedure:
Further experiments were conducted using different strains of E. faecalis, as clinically relevant Gram-positive bacterial strains: E. faecalis vancomycin-resistant (VRE) ATCC BAA-2365, and E. faecalis ATCC 29212 in order to determine the Minimal Inhibitory Concentration (MIC) which is the minimal concentration required to prevent bacterial growth; the Minimal Bactericidal Concentration (MBC) which determines the lowest concentration at which an antimicrobial agent kill a particular microorganism and a Minimum Duration for killing 99.9% bacteria (MDK99.9) which is a tolerance metric according to the EUCAST.
MBC and MDK99.9 determination: A single colony selected from the different strains of E. faecalis is resuspended and cultured in the appropriate medium (TSB, or BHI) overnight (O/N) in aerobic conditions (37° C. with 220 rpm shaking), next day a 1:100 inoculum in the appropriate medium was incubated in aerobic conditions for 2 h. The culture is then challenged with triafluocyl at MIC concentration or higher concentrations. Bacterial growth was measured after different time intervals by counting the colony-forming units after plating appropriate culture dilutions on BHI agar plates. […] And the real time needed is defined as the MDK99.9. MBC for Triafluocyl against E. faecalis vancomycin-resistant (VRE) ATCC BAA-2365 was 20 μg/ml. MDK99.9 for Triafluocyl against E. faecalis vancomycin-resistant (VRE) ATCC BAA-2365 was 24 hours.
as §1

Experiment [3] deals with S. aureus MRSA (ATCC BAA-1556). Briefly: Killing curve (CFU counting). In kind it is cell-based, Staphylococcus aureus. How it is done: S. aureus MRSA (ATCC BAA-1556) was grown overnight in brain heart infusion (BHI) medium, diluted 1:100 in fresh BHI, and incubated aerobically at 37° C. until bacteria growth reached a logarithmic phase (OD600=0.25-0.3).
Triafluocyl (Cayman Chemical, Item No. 15425) (20 μg/ml), Vancomycin (Sigma, 4 μg/ml or 10 μg/ml), Minocycline (Sigma, 8 μg/ml) or a solvent (DMSO) were added to 5 ml of S. aureus MRSA suspensions.
Bacterial growth for S. aureus MRSA was measured after different time intervals by counting the colony-forming units after plating appropriate culture dilutions on BHI agar plates.
S. aureus MRSA (ATCC BAA-1556) was grown overnight in BHI medium, then a 1:100 inoculum was diluted in fresh BHI and incubated aerobically at 37° C. until bacteria growth reached a logarithmic phase (OD600=0.25-0.3). The culture was split into two and challenged with 38 μM Fluometacyl (=18.2 μg/ml) or DMSO (Ctrl). Bacterial growth was measured after different time intervals by counting the colony-forming units after plating appropriate culture dilutions on BHI agar plates. (N=2)

Experiment [4] relates to Staphyloccocus epidermidis (ATCC 35984) biofilm. Briefly: Biofilm formation (crystal violet, 24-well plate). It is filed as cell-based, Staphylococcus epidermidis. Conditions: 38 μM; 20 hours; FIG. 10B. How it is done: Staphyloccocus aureus (ATCC 25904) or Staphyloccocus epidermidis (ATCC 35984) were grown overnight in TSB medium, before being diluted 100 fold in fresh TSB, and incubated aerobically at 37° C. until bacteria culture reached an OD600 of 0.6 (corresponding to approximately 1-3×10^8 CFU/ml). Bacteria cultures were then diluted to 1×10^4 CFU/ml in fresh TSB. Aliquots of 800 μl diluted bacteria suspensions were distributed in each well of a 24-well plate. Bacteria were allowed to adhere for 4 hours under static conditions at 37° C. After removing the media, wells were rinsed 2 times with PBS to eliminate planktonic bacteria and re-filled with TSB supplemented with 0.5% glucose containing Fluometacyl at desired concentration or DMSO alone (Ctrl). The 24-well plates were incubated at 37° C. for 20 hours. Wells were then washed and stained with 0.5% (w/v) crystal violet for 30 minutes and rinsed with PBS 4 times. The dye was solubilized by adding 20% acetic acid (v/v in water) before reading absorbance at 595 nm. FIG. 10A and FIG. 10B show Fluometacyl effect on S. aureus and S. epidermidis biofilm formation respectively at all concentrations tested.

Read-outs that look alike come from different tables or passages of the source.

`CCCSc1nc(N[C@@H]2C[C@H]2c2ccc(F)c(F)c2)c2nnn([C@@H]3C[C@H](O)[C@@H](O)[C@H]3O)c2n1` [Fluometacyl, (1S,2R,3S,4R)-4-[7-[[(1R,2S)-2-(3,4-Difluorophenyl)cyclopropyl]amino]-5-(propylthio)-3H-1,2,3-triazolo[4,5-d]pyrimidin-3-yl]-1,2,3-cyclopentanetriol]: the MBC came to 38 µM in experiment [1] (Staphylococcus epidermidis, ATCC35984, S. epidermidis, cut-off 99.9% reduction in CFU, read-out: MBC) and 38 µM in experiment [2]. The “bactericidal activity against S. aureus MRSA (time-kill)” value in experiment [3] (38 μM (=18.2 μg/ml), FIG. 9) was “bactericidal activity”. Moreover, the “S. epidermidis biofilm formation” value in experiment [4] is “could not form any biofilm”.
Consider `CCCSc1nc(N[C@@H]2C[C@H]2c2ccc(F)c(F)c2)c2nnn([C@@H]3C[C@H](OCCO)[C@@H](O)[C@H]3O)c2n1` [Triafluocyl, (1S,2S,3R,5S)-3-[7-[(1R,2S)-2-(3,4-difluorophenyl)cyclopropylamino]-5-(propylthio)-3H-[1,2,3]-triazolo[4,5-d]pyrimidin-3-yl]-5-(2-hydroxyethoxy)-1,2-cyclopentanediol], for which the MBC came out at 20 µg/mL in experiment [1] (S. epidermidis); 17 ± 3 µg/mL in experiment [1] (Staphylococcus epidermidis, ATCC35984, S. epidermidis, read-out: MBC); 20 µg/mL in experiment [2]. Further, the “MDK 99.9 Time (h) needed to kill 99.9% of the started inoculum” value in experiment [1] (S. epidermidis) was 2 h; in experiment [2] it was 24 h. Also, the “effect on S. aureus MRSA viable count after the first two hours” value in experiment [3] (Triafluocyl 20 μg/ml, Vancomycin 10-fold MIC, Minocycline 8-fold MIC, FIG. 8A) was “decrease of S. aureus MRSA viable count”.

The record behind these values is patent US10905691B2, “Use of triazolo(4,5-d)pyrimidine derivatives for prevention and treatment of bacterial infection” (Universite de Liege, priority 2016, dated 2021).
